From the supplement of paper PMC11451515

Columns and labels:
Conditions in all cases: 48 h
[1] = tested on: NOMO1; experiment: AUC of viability dose-response curve (% viability x log10 dose units); higher = less sensitive
How it was run: (§1)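 Library compounds in DMSO were applied for 48 h at 37°C at 11 threefold doses (47 μM to 0.79 nM) to medium-adapted leukemia cells in 1536-well plates holding 500 or 1000 cells/well. Luminescence from CellTiter-Glo One was normalised plate by plate against DMSO and cell-free wells. Area under the curve came from trapezoidal integration of a log-logistic fit, after scaling curves that rose above full viability and discarding those that failed quality control. The fit had four parameters and used log10 doses.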

[2] = tested on: P12-Ichikawa; experiment: as above
How it was run: as §1

[3] = tested on: SEM cells; experiment: as above
How it was run: as §1

[4] = tested on: NOMO1; experiment: cell viability relative to DMSO control; higher = less cytotoxic
How it was run: (§2)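 NOMO1, SEM and P12-Ichikawa leukemia cells spent at least four passages adapting to each medium before use. They were seeded at 500 cells/well (NOMO1, SEM) or 1000 cells/well (P12-Ichikawa) in 5 μl in 1536-well plates and pin-dosed with library compounds in DMSO at 11 threefold steps from 47 μM down to 0.79 nM. After 48 h at 37°C, CellTiter-Glo One luminescence was read. Viability is reported as a percentage of the DMSO wells on each plate, with cell-free wells as background.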

[5] = tested on: P12-Ichikawa; experiment: as above
How it was run: as §2

[6] = tested on: SEM cells; experiment: as above
How it was run: as §2

CCCCc1nc2cc(/C=C/C(=O)NO)ccc2n1CCN(CC)CC
AUC of viability dose-response curve
Conditions | [1] | [2] | [3]
HPLM + 10% dialyzed FBS | 370 | 345 | 344
RPMI 5 mM glucose + 10% FBS | 326 | 337 | 345
RPMI 5 mM glucose + 10% dialyzed FBS | 349 | 348 | 303

cell viability [%]
Conditions | [4] | [5] | [6]
HPLM + 10% dialyzed FBS, 0.000781 µM | 109 | 93 | 91.9
HPLM + 10% dialyzed FBS, 0.00234 µM | 112 | 98.5 | 91.8
HPLM + 10% dialyzed FBS, 0.00702 µM | 94.2 | 103 | 105
HPLM + 10% dialyzed FBS, 0.0211 µM | 106 | 95.9 | 98.1
HPLM + 10% dialyzed FBS, 0.0632 µM | 86.9 | 95.7 | 108
HPLM + 10% dialyzed FBS, 0.19 µM | 99.7 | 104 | 108
HPLM + 10% dialyzed FBS, 0.569 µM | 85.1 | 90.1 | 92.6
HPLM + 10% dialyzed FBS, 1.71 µM | 84.8 | 83.7 | 61.1
HPLM + 10% dialyzed FBS, 5.12 µM | 39.3 | 3.65 | 6.03
HPLM + 10% dialyzed FBS, 15.4 µM | 4.23 | 2.43 | 4.68
HPLM + 10% dialyzed FBS, 46.1 µM | 6.15 | 4.19 | 5.88
RPMI 5 mM glucose + 10% FBS, 0.000781 µM | 80.5 | 86.9 | 85.4
RPMI 5 mM glucose + 10% FBS, 0.00234 µM | 83.2 | 96.3 | 99.1
RPMI 5 mM glucose + 10% FBS, 0.00702 µM | 83.2 | 96.2 | 94.8
RPMI 5 mM glucose + 10% FBS, 0.0211 µM | 87.1 | 83.5 | 97.8
RPMI 5 mM glucose + 10% FBS, 0.0632 µM | 94.2 | 101 | 109
RPMI 5 mM glucose + 10% FBS, 0.19 µM | 89.3 | 91.3 | 107
RPMI 5 mM glucose + 10% FBS, 0.569 µM | 86.8 | 95.7 | 94
RPMI 5 mM glucose + 10% FBS, 1.71 µM | 85.9 | 85.7 | 73
RPMI 5 mM glucose + 10% FBS, 5.12 µM | 28.6 | 12.3 | 5.16
RPMI 5 mM glucose + 10% FBS, 15.4 µM | 4.31 | 2.22 | 4.06
RPMI 5 mM glucose + 10% FBS, 46.1 µM | 4.51 | 3.51 | 5.64
RPMI 5 mM glucose + 10% dialyzed FBS, 0.000781 µM | 74.9 | 95.7 | 82.9
RPMI 5 mM glucose + 10% dialyzed FBS, 0.00234 µM | 98.4 | 95.6 | 79.1
RPMI 5 mM glucose + 10% dialyzed FBS, 0.00702 µM | 86.4 | 93.5 | 95.6
RPMI 5 mM glucose + 10% dialyzed FBS, 0.0211 µM | 91.5 | 90.4 | 94
RPMI 5 mM glucose + 10% dialyzed FBS, 0.0632 µM | 94.3 | 100 | 77.5
RPMI 5 mM glucose + 10% dialyzed FBS, 0.19 µM | 97.2 | 101 | 99.6
RPMI 5 mM glucose + 10% dialyzed FBS, 0.569 µM | 86.2 | 98.6 | 76.6
RPMI 5 mM glucose + 10% dialyzed FBS, 1.71 µM | 79.3 | 79.5 | 57.7
RPMI 5 mM glucose + 10% dialyzed FBS, 5.12 µM | 57.9 | 17.6 | 6.04
RPMI 5 mM glucose + 10% dialyzed FBS, 15.4 µM | 5.08 | 1.97 | 4.68
RPMI 5 mM glucose + 10% dialyzed FBS, 46.1 µM | 4.97 | 3.51 | 6.77

CC(S)C(=O)NCC(=O)O (stereo unspecified)
AUC of viability dose-response curve
Conditions | [1] | [2] | [3]
HPLM + 10% dialyzed FBS | 464 | 471 | 438
RPMI 5 mM glucose + 10% FBS | 440 | 476 | 432
RPMI 5 mM glucose + 10% dialyzed FBS | 469 | 472 | 417

cell viability [%]
Conditions | [4] | [5] | [6]
HPLM + 10% dialyzed FBS, 0.000781 µM | 116 | 106 | 40
HPLM + 10% dialyzed FBS, 0.00234 µM | 109 | 110 | 99
HPLM + 10% dialyzed FBS, 0.00702 µM | 110 | 118 | 59.5
HPLM + 10% dialyzed FBS, 0.0211 µM | 116 | 109 | 95
HPLM + 10% dialyzed FBS, 0.0632 µM | 116 | 119 | 105
HPLM + 10% dialyzed FBS, 0.19 µM | 123 | 101 | 101
HPLM + 10% dialyzed FBS, 0.569 µM | 108 | 129 | 92.8
HPLM + 10% dialyzed FBS, 1.71 µM | 114 | 117 | 103
HPLM + 10% dialyzed FBS, 5.12 µM | 111 | 118 | 90.6
HPLM + 10% dialyzed FBS, 15.4 µM | 97.9 | 113 | 113
HPLM + 10% dialyzed FBS, 46.1 µM | 89.4 | 106 | 95
RPMI 5 mM glucose + 10% FBS, 0.000781 µM | 120 | 109 | 33
RPMI 5 mM glucose + 10% FBS, 0.00234 µM | 112 | 112 | 102
RPMI 5 mM glucose + 10% FBS, 0.00702 µM | 109 | 108 | 50.5
RPMI 5 mM glucose + 10% FBS, 0.0211 µM | 107 | 119 | 87.8
RPMI 5 mM glucose + 10% FBS, 0.0632 µM | 107 | 116 | 114
RPMI 5 mM glucose + 10% FBS, 0.19 µM | 111 | 115 | 105
RPMI 5 mM glucose + 10% FBS, 0.569 µM | 107 | 114 | 101
RPMI 5 mM glucose + 10% FBS, 1.71 µM | 110 | 126 | 105
RPMI 5 mM glucose + 10% FBS, 5.12 µM | 114 | 115 | 84
RPMI 5 mM glucose + 10% FBS, 15.4 µM | 116 | 109 | 109
RPMI 5 mM glucose + 10% FBS, 46.1 µM | 107 | 106 | 108
RPMI 5 mM glucose + 10% dialyzed FBS, 0.000781 µM | 105 | 108 | 35.6
RPMI 5 mM glucose + 10% dialyzed FBS, 0.00234 µM | 113 | 105 | 92.5
RPMI 5 mM glucose + 10% dialyzed FBS, 0.00702 µM | 113 | 111 | 45
RPMI 5 mM glucose + 10% dialyzed FBS, 0.0211 µM | 107 | 118 | 101
RPMI 5 mM glucose + 10% dialyzed FBS, 0.0632 µM | 107 | 112 | 123
RPMI 5 mM glucose + 10% dialyzed FBS, 0.19 µM | 105 | 112 | 108
RPMI 5 mM glucose + 10% dialyzed FBS, 0.569 µM | 107 | 113 | 114
RPMI 5 mM glucose + 10% dialyzed FBS, 1.71 µM | 112 | 113 | 118
RPMI 5 mM glucose + 10% dialyzed FBS, 5.12 µM | 105 | 113 | 80.7
RPMI 5 mM glucose + 10% dialyzed FBS, 15.4 µM | 96.5 | 120 | 119
RPMI 5 mM glucose + 10% dialyzed FBS, 46.1 µM | 112 | 102 | 104

CC(C)(C)C1=CC(=C(NC(=O)C/2=C/NC3=C(C=CC=C3)C2=O)C=C1O)C(C)(C)C
AUC of viability dose-response curve
Conditions | [1] | [2] | [3]
HPLM + 10% dialyzed FBS | 447 | 471 | 461
RPMI 5 mM glucose + 10% FBS | 462 | 452 | 467
RPMI 5 mM glucose + 10% dialyzed FBS | 464 | 455 | 470

cell viability [%]
Conditions | [4] | [5] | [6]
HPLM + 10% dialyzed FBS, 0.000781 µM | – | 123 | 122
HPLM + 10% dialyzed FBS, 0.00234 µM | – | 113 | 118
HPLM + 10% dialyzed FBS, 0.00702 µM | – | 124 | 128
HPLM + 10% dialyzed FBS, 0.0211 µM | – | 120 | 123
HPLM + 10% dialyzed FBS, 0.0632 µM | – | 121 | 113
HPLM + 10% dialyzed FBS, 0.19 µM | – | 124 | 131
HPLM + 10% dialyzed FBS, 0.569 µM | – | 120 | 124
HPLM + 10% dialyzed FBS, 1.71 µM | – | 118 | 124
HPLM + 10% dialyzed FBS, 5.12 µM | – | 118 | 109
HPLM + 10% dialyzed FBS, 15.4 µM | – | 114 | 108
HPLM + 10% dialyzed FBS, 46.1 µM | – | 112 | 103
RPMI 5 mM glucose + 10% FBS, 0.000781 µM | 120 | 124 | 109
RPMI 5 mM glucose + 10% FBS, 0.00234 µM | 108 | 139 | 108
RPMI 5 mM glucose + 10% FBS, 0.00702 µM | 118 | 124 | 126
RPMI 5 mM glucose + 10% FBS, 0.0211 µM | 128 | 133 | 113
RPMI 5 mM glucose + 10% FBS, 0.0632 µM | 136 | 119 | 120
RPMI 5 mM glucose + 10% FBS, 0.19 µM | 124 | 124 | 111
RPMI 5 mM glucose + 10% FBS, 0.569 µM | 121 | 131 | 129
RPMI 5 mM glucose + 10% FBS, 1.71 µM | 116 | 115 | 129
RPMI 5 mM glucose + 10% FBS, 5.12 µM | 114 | 117 | 123
RPMI 5 mM glucose + 10% FBS, 15.4 µM | 111 | 116 | 116
RPMI 5 mM glucose + 10% FBS, 46.1 µM | 103 | 112 | 108
RPMI 5 mM glucose + 10% dialyzed FBS, 0.000781 µM | – | – | 98.7
RPMI 5 mM glucose + 10% dialyzed FBS, 0.00234 µM | – | – | 101
RPMI 5 mM glucose + 10% dialyzed FBS, 0.00702 µM | – | – | 103
RPMI 5 mM glucose + 10% dialyzed FBS, 0.0211 µM | – | – | 99.9
RPMI 5 mM glucose + 10% dialyzed FBS, 0.0632 µM | – | – | 101
RPMI 5 mM glucose + 10% dialyzed FBS, 0.19 µM | – | – | 103
RPMI 5 mM glucose + 10% dialyzed FBS, 0.569 µM | – | – | 115
RPMI 5 mM glucose + 10% dialyzed FBS, 1.71 µM | – | – | 97.8
RPMI 5 mM glucose + 10% dialyzed FBS, 5.12 µM | – | – | 110
RPMI 5 mM glucose + 10% dialyzed FBS, 15.4 µM | – | – | 110
RPMI 5 mM glucose + 10% dialyzed FBS, 46.1 µM | – | – | 94.7
